{"source": "patent US7767232B2", "about": "“Control of nitric oxide bioactivity by perfluorocarbons” (New York University, priority 2002, dated 2010)", "key": {"[1]": {"tested_on": "nitrosothiols formation", "test": "Effect of α-dihydrolipoic acid on nitrosothiol formation and vasorelaxation in the presence of perfluorocarbons", "conditions": "FIG. 8, in vitro and in vivo", "from_the_text": "If delivered at small concentrations, i.e., less than 1% v/v, and in conjunction with low molecular weight nucleophiles, such as thiols or mixtures of thiols, perfluorocarbons act as a powerful vasodilator rather than as a vasoconstrictor. NO^+ originated from N2O3 in the perfluorocarbon micelles can be transferred to various low molecular weight nucleophiles, exemplified as RSH, by two possible pathways, as shown in FIG. 7. Direct attack on RSH is possible at the surface of perfluorocarbon micelles or inside the micelles, if the RSH were hydrophobic enough to enter it, as shown in pathway I of FIG. 7. Additionally, NO can reach various RSH via a transnitrosation reaction by using a lipophilic low molecular weight “shuttle”, as shown in FIG. 7. One example of such an NO shuttle is α-lipoic acid (α-LA), which is normally present in the circulation at low (micromolar) concentrations (Keipert, 2001). α-lipoic acid has a highly hydrophobic tail (FIG. 7A), which can readily penetrate the perfluorocarbon micelle where it is nitrosated. Since both SH groups of α-dihydro-lipoic acid are located next to each other, upon nitrosation they would almost immediately form an S-S adduct and release NO^+. […]"}, "[2]": {"tested_on": "rats", "test": "Plasma low molecular weight S-nitrosothiols and mean arterial pressure after Perftoran and thiols in rats", "format": "in vivo, rat", "conditions": "cysteine 1 mg/kg intravenously, without perfluorocarbon", "description": "Plasma low molecular weight-S-nitrosothiols were determined using CuCl2 to displace NO from thiol residues followed by electrochemical detection of released NO (Rafikova et al., 2002). The concentration of CuCl2, 40 μM, was selected to decompose predominantly low molecular weight S-nitrosothiols."}, "[3]": {"tested_on": "rats", "test": "Relation of perfluorocarbon hemodynamic effects to NO: L-NAME and potassium nitrite treated rats, mean arterial pressure", "format": "in vivo, rat"}}}
{"compound": "O=C(O)CCCC[C@@H](S)CCS", "note": "[α-dihydrolipoic acid]", "values": [{"measurement": "effect on formation of nitrosothiols and vasorelaxation", "setting": "[1]", "result": "simulating effect"}]}
{"compound": "N[C@@H](CS)C(=O)O", "note": "[cysteine, L-cysteine]", "values": [{"measurement": "effect on blood pressure", "setting": "[2]", "result": "virtually no effect"}, {"measurement": "effect on plasma low molecular weight S-nitrosothiols", "setting": "[2]", "result": "virtually no effect"}]}
{"compound": "O=N[O-].[K+]", "note": "[potassium nitrite]", "values": [{"measurement": "effect on mean arterial pressure after L-NAME", "setting": "[3]; 1 mg/kg potassium nitrite about 90 minutes after L-NAME", "result": "partially restored mean arterial pressure"}, {"measurement": "mean arterial pressure above the baseline", "setting": "[3]; nitrite-treated (L-NAME) rats without Perftoran, same time", "result": "about 24 mmHg"}]}
